Where “and” joins values, the source holds several entries; their conditions need not be identical. Equal entries are not always repeated. Where two headings read alike, the source gives them in different places.
How the values were obtained:
[1] = Cytotoxicity assay (MTT), human lymphocytic cell lines, pooled data; assay type: cell-based; conditions: H-9 and CEM inhibited by 50%, read-out: Mean CC50 (Human Cell Lines) ± SEM (no. of expts)
Method: (§1) Normal murine spleen cells were washed in HBSS, cultured at 2.5×10^6 or 5×10^6 cells per mL in RPMI 1640 (with Hepes) complete medium with 2 mM-L-glutamine, 1 mM sodium pyruvate, 0.05 mM β-mercaptoethanol, penicillin, streptomycin, and amphotericin B with 10% fetal calf serum and Concanavalin A (ConA) at 2.5 μg/mL in a 96-well microtiter plate. A range of diluted analogs were added to triplicate culture wells and the cells were incubated at 37° C. in 5% CO2. Wells containing cells, media and ConA were used as controls. Forty-eight hours post incubation, 20 μL of the vital dye MTT (3-[4,5-Dimethylthiazol-2-yl]-2,5-diphenyltetrazolium bromide; thiazolyl blue) at 5 mg/mL was added to each well and the cultures re-incubated for 4-6 hours. Following centrifugation, the supernatants were decanted and the stained cells were resuspended in 100 μL of 0.4% HCl acidified isopropanol. The optical densities of each well were read at 600 nm using a Cambridge Technologies series 700 microplate reader. The human lymphocytic cell lines CCRF-CEM (ATCC: HTB 176) and H-9 (ATCC: CCL 119) were subcultured from recently cultured cells grown in complete RPMI 1640 medium as described above but without the β-mercaptoethanol and ConA at 6.25×10^5 and 2×10^6 per mL in a 96 well culture plate. These cell numbers represented log phase and early stationary phase of the freshly cultured cells. As these cell lines rapidly reproduce without mitogenic stimulation, Con A was not used. A range of analogues or media alone was added in triplicate to the cultures and the cultures incubated, pulsed with MTT, harvested and their growth estimated as described above for the murine cultures. The CC50 or the concentration of drug which inhibited cell growth as estimated by MTT formazan production to 50% of that of untreated control cells was determined by linear interpolation for each lavendamycin analog.

[2] = Cytotoxicity assay (MTT), normal murine spleen cells stimulated with concanavalin A; assay type: cell-based; conditions: normal mouse spleen stimulated with concanavalin A inhibited by 50%, read-out: Mean CC50 (Normal Mouse Spleen) ± SEM (no. of expts)
Method: as §1

HIV-RT = molecular target: T1, HIV-RT (Human immunodeficiency virus type 1 group M subtype B, UniProt P04585); assay: Checkerboard combination of lavendamycin analogs with AZT-triphosphate in HIV-RT enzyme assay (Chou and Talalay); assay type: biochemical
T1 construct: 1 unit/mL of HIV-RT (Worthington Biochemical Corp., Freehold, N.J.); purchased Worthington Biochemical Corp., Freehold, N.J
Method: The results were analyzed by the method of Chou and Talalay based on the median-effect principle and represented by combination indices (CI) determined for each of the two drug combinations (e.g., see: Chou, T. C.; Talalay, P. “Quantitative Analysis of Dose-Effect Relationships: The Combined Effects of Multiple Drugs or Enzyme Inhibitors,” Adv. Enzyme Regul., 1984, 22, 27-65; and Chou, J.; Chou, T. C. “Dose-Effect Analysis with Microcomputers: Quantitation of ED50, LD50, Synergism, Antagonism, Low-Dose Risk, Receptor-Ligand Binding and Enzyme Kinetics,” In: A computer Software for IBM-PC and Manual, Cambridge, UK, Elsevier-Biosoft, 1987). This method involves the plotting of dose-effect curves for each agent and for each of the different combinations of the agents. The slope of the median-effect plot, which signifies the shape of the dose-effect curve, and the x intercept of the plot, which signifies the potency of each compound alone and each combination, were then used for a computerized calculation of a combination index.
The assay procedure described below is adapted from Okada et al. (Okada, H.; Mukai, H.; Inouye, Y; Nakamura, S. “Biological Properties of Streptonigrin Derivatives II. Inhibition of Reverse Transcriptase Activity,” J. Antibiot., 1986, 39, 306-308). The lavendamycin analogs were initially dissolved in DMSO at a concentration of 1 mg/mL. Occasionally, mild sonication and heat were used to dissolve the less soluble compounds. The dissolved analogs were then serially diluted in distilled water to achieve concentrations in the final reaction mixture ranging from 0.5-15 μM. In addition to the lavendamycin analogs, the final reaction mixture contained 100 mM Tris-HCl (pH 8.0), 5 mM MgCl2, 5 mM dithiothreitol, 60 mM NaCl, 0.2 mM [^3H] thymidine triphosphate(5 μCi well), 4 μg/mL poly (rA)-oligo(dT)12-18 (Amersham Pharmacia Biotech, Piscataway, N.J.) and 1 unit/mL of HIV-RT (Worthington Biochemical Corp., Freehold, N.J.) in a total volume of 300 μL. For each assay, the reaction mixture containing 8× buffer, double distilled H2O, ^3HTTP, template-primer and HIV-RT was pre-mixed in a 15-mL sterile tube in quantities required for the particular experiment. After adding the enzyme, the reaction mixture was mixed and kept on ice. The inhibitors, either AZT(Moravek Biochemicals, Brea, Calif.), analogs or both were added to appropriate wells in a 24 well microtiter plate and ddH2O was added to each well to bring the volume of all test wells to 100 μL. Two hundred μL of the chilled reaction mixture was then added to each of the test wells, mixed, and incubated for 1 hr at 37° C. Several control wells with no inhibitors were included on each test plate. After stopping the reactions with 25 μL 0.1 M EDTA, triplicate samples of 15 μL from each test well were spotted on DE81 ion exchange filter paper squares (Whatman Paper, Maidstone, England). After drying, each filter was washed for 10 minutes three times with 5% TCA-NHPO4, three times with 0.6M NaCl-[…] Na Citrate, one time with ddH2O and one time with 95% ethanol. After drying the individual filter papers were added to 5 mL Scintiverse E (Fisher Scientific, Chicago, Ill.) scintillation fluid and the amount of 3H-TTP uptake measured as counts per minute on a Beckman liquid scintillation counter. […] The results were then analyzed using Calcusyn, a windows software program for dose effect analysis designed by T. -C. Chou and M. P. Hayball and published by Biosoft® (UK).

[3] = analogue 0.25 μM + AZT 0.007 μM, Trial 1
[4] = analogue 0.25 μM + AZT 0.007 μM, Trial 2
[5] = analogue 0.25 μM + AZT 0.01 μM, Trial 1
[6] = analogue 0.25 μM + AZT 0.01 μM, Trial 2
[7] = analogue 0.25 μM + AZT 0.02 μM, Trial 1
[8] = analogue 0.25 μM + AZT 0.02 μM, Trial 2
[9] = analogue 0.5 μM + AZT 0.007 μM, Trial 1
[10] = analogue 0.5 μM + AZT 0.007 μM, Trial 2
[11] = analogue 0.5 μM + AZT 0.01 μM, Trial 1
[12] = analogue 0.5 μM + AZT 0.01 μM, Trial 2
[13] = analogue 0.5 μM + AZT 0.02 μM, Trial 1
[14] = analogue 0.5 μM + AZT 0.02 μM, Trial 2
[15] = analogue 0.75 μM + AZT 0.01 μM, Trial 1
[16] = analogue 0.75 μM + AZT 0.01 μM, Trial 2
[17] = analogue 0.75 μM + AZT 0.02 μM, Trial 1
[18] = analogue 0.75 μM + AZT 0.02 μM, Trial 2
[19] = analogue 1.5 μM + AZT 0.007 μM, Trial 1
[20] = analogue 1.5 μM + AZT 0.007 μM, Trial 2
[21] = analogue 1.5 μM + AZT 0.01 μM, Trial 1
[22] = analogue 1.5 μM + AZT 0.01 μM, Trial 2
[23] = analogue 1.5 μM + AZT 0.02 μM, Trial 1
[24] = analogue 1.5 μM + AZT 0.02 μM, Trial 2
[25] = human lymphocytic cell lines CCRF-CEM and H-9, pooled data
[26] = normal murine spleen cells stimulated with concanavalin A
[27] = analogue 0.75 μM + AZT 0.007 μM, Trial 1
[28] = analogue 0.75 μM + AZT 0.007 μM, Trial 2

SMILES	Combination index (HIV-RT; [3])	Combination index (HIV-RT; [4])	Combination index (HIV-RT; [5])	Combination index (HIV-RT; [6])	Combination index (HIV-RT; [7])	Combination index (HIV-RT; [8])	Combination index (HIV-RT; [9])	Combination index (HIV-RT; [10])	Combination index (HIV-RT; [11])	Combination index (HIV-RT; [12])	Combination index (HIV-RT; [13])	Combination index (HIV-RT; [14])	Combination index (HIV-RT; [15])	Combination index (HIV-RT; [16])	Combination index (HIV-RT; [17])	Combination index (HIV-RT; [18])	Combination index (HIV-RT; [19])	Combination index (HIV-RT; [20])	Combination index (HIV-RT; [21])	Combination index (HIV-RT; [22])	further results
CCCCCCCCOC(=O)c1cc2c([nH]c3ccccc32)c(-c2ccc3c(n2)C(=O)C(N)=CC3=O)n1 [Compound 20, Demethyllavendamycin n-Octyl Ester]	0.65	0.61	0.77	0.77	0.97	1.00	0.62	0.61	0.60	0.61	0.86	0.88	0.64	0.63	0.61	0.64	0.83	0.83	0.70	0.69	CC50 at 48 h [1]: 47 ± 14 µM; CC50 at 48 h [2]: 48 ± 10 µM; Combination index (HIV-RT): 0.68 and 0.66; Combination index (HIV-RT; [23]): 0.64; Combination index (HIV-RT; [24]): 0.63
CC(=O)NC1=CC(=O)c2ccc(-c3nc(C(=O)OCCOP(=O)(O)O)cc4c3[nH]c3ccccc34)nc2C1=O [Compound 19]													0.64	1.04			0.49	0.81	0.69	0.69	CC50 at 48 h [1, 25]: 27 ± 3 µM; CC50 at 48 h [2, 26]: 29 ± 5 µM; Combination index (HIV-RT; [27]): 0.47; Combination index (HIV-RT; [28]): 0.68; Combination index (HIV-RT; analogue 3 μM + AZT 0.007 μM, Trial 1): 0.49; Combination index (HIV-RT; analogue 3 μM + AZT 0.007 μM, Trial 2): 0.79; Combination index (HIV-RT; analogue 3 μM + AZT 0.01 μM, Trial 1): 0.28; Combination index (HIV-RT; analogue 3 μM + AZT 0.01 μM, Trial 2): 0.56; Combination index (HIV-RT; analogue 6 μM + AZT 0.007 μM, Trial 1): 0.32; Combination index (HIV-RT; analogue 6 μM + AZT 0.007 μM, Trial 2): 0.60; Combination index (HIV-RT; analogue 6 μM + AZT 0.01 μM, Trial 1): 0.28; Combination index (HIV-RT; analogue 6 μM + AZT 0.01 μM, Trial 2): 0.75
CC(=O)NC1=CC(=O)c2ccc(-c3nc(C(N)=O)cc4c3[nH]c3ccccc34)nc2C1=O [Compound 16, 7-N-Acetyldemethyllavendamycin Amide]	0.82	0.80	0.85	1.18	0.67	0.75	0.54	0.65	0.87	0.70	0.58	0.60	1.0	1.20	1.10	1.10	0.66	0.67	1.0	1.0	CC50 at 48 h [1, 25]: 95 ± 45 µM; CC50 at 48 h [2, 26]: 50 ± 7 µM; Combination index (HIV-RT; [27]): 1.50; Combination index (HIV-RT; [28]): 1.61; Combination index (HIV-RT; [23]): 1.00; Combination index (HIV-RT; [24]): 1.00
CCCCOC(=O)c1cc2c([nH]c3ccccc32)c(-c2ccc3c(n2)C(=O)C(NC(=O)CCC)=CC3=O)n1 [Compound 12, 7-N-n-Butyryidemethyllavendamycin n-Butyl Ester]	0.82	0.83	0.58	0.58	0.59	0.50	0.88	0.71	0.76	0.76	0.85	0.93	0.86	0.99	1.00	0.92	1.30	1.20	0.81	0.91	CC50 at 48 h [1]: 50 ± 15 µM; CC50 at 48 h [2]: 81 ± 17 µM; Combination index (HIV-RT): 1.30 and 1.60; Combination index (HIV-RT; [23]): 1.10; Combination index (HIV-RT; [24]): 0.96
COC(=O)c1nc(-c2ccc3c(n2)C(=O)C(NC(C)=O)=CC3=O)c2[nH]c3ccccc3c2c1C [Compound 11, 7-acetyllavendamycin methyl ester]	0.57	0.48	0.94	0.89	0.90	0.68	0.81	0.71	0.84	0.76	0.72	0.84	1.20	1.08	0.94	0.84	1.40	1.23	1.40	1.12	CC50 at 48 h [1, 25]: 31 ± 2 µM; CC50 at 48 h [2, 26]: 62 ± 5 µM; Combination index (HIV-RT): 1.00 and 1.30; Combination index (HIV-RT; [23]): 1.17; Combination index (HIV-RT; [24]): 1.08
